Measurements from patent US12077503B2, “Substituted cyclic amides and their use as herbicides” (FMC CORPORATION, priority 2015, dated 2024).

How the values were obtained:
Type in all cases: in vivo
[1] = test system: Kochia (Kochia scoparia); assay: Test A preemergence; details: Bassia scoparia, pre-emergence, 240 h, Preemergence
Procedure, shortened: (§1)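 Visual injury, scored on a 0–100 scale relative to untreated controls, was recorded about 10 d after application. Treatments were a preemergence soil spray over planted seeds or a postemergence spray on plants at the one- to two-leaf stage, 2 to 10 cm tall, all in loam soil–sand blend in the greenhouse.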

[2] = test system: barnyardgrass (Echinochloa crus-galli); assay: Test A preemergence; details: Echinochloa crus-galli, pre-emergence, 240 h, Preemergence
Procedure, shortened: as §1

[3] = test system: giant foxtail (Setaria faberii); assay: Test A preemergence; details: Setaria faberi, pre-emergence, 240 h, Preemergence
Procedure, shortened: as §1

[4] = test system: pigweed (Amaranthus retroflexus); assay: Test A preemergence; details: Amaranthus retroflexus, pre-emergence, 240 h, Preemergence
[5] = test system: ragweed (common ragweed, Ambrosia elatior); assay: Test A preemergence; details: Ambrosia artemisiifolia, pre-emergence, 240 h, Preemergence
Procedure, shortened: as §1

[6] = test system: ryegrass, Italian (Italian ryegrass, Lolium multiflorum); assay: Test A preemergence; details: Lolium multiflorum, pre-emergence, 240 h, Preemergence
Procedure, shortened: as §1

[7] = test system: Galium (catchweed bedstraw, Galium aparine); assay: Test A postemergence; details: Galium, post-emergence, 240 h, Postemergence, read-out: Galium plant response rating (0 to 100 scale)
Procedure, shortened: as §1

[8] = test system: Kochia (Kochia scoparia); assay: Test A postemergence; details: Bassia scoparia, post-emergence, 240 h, Postemergence, read-out: Kochia plant response rating (0 to 100 scale)
Procedure, shortened: as §1

[9] = test system: barnyardgrass (Echinochloa crus-galli); assay: Test A postemergence; details: Echinochloa crus-galli, post-emergence, 240 h, Postemergence
Procedure, shortened: as §1

[10] = test system: blackgrass (Alopecurus myosuroides); assay: Test A postemergence; details: Alopecurus myosuroides, post-emergence, 240 h, Postemergence, read-out: Blackgrass plant response rating (0 to 100 scale)
Procedure, shortened: as §1

[11] = test system: corn (Zea mays); assay: Test A postemergence; details: Zea mays, post-emergence, 240 h, Postemergence, read-out: Corn plant response rating (0 to 100 scale)
Procedure, shortened: as §1

[12] = test system: giant foxtail (Setaria faberii); assay: Test A postemergence; details: Setaria faberi, post-emergence, 240 h, Postemergence, read-out: Foxtail, Giant plant response rating (0 to 100 scale)
Procedure, shortened: as §1

[13] = test system: pigweed (Amaranthus retroflexus); assay: Test A postemergence; details: Amaranthus retroflexus, post-emergence, 240 h, Postemergence, read-out: Pigweed plant response rating (0 to 100 scale)
Procedure, shortened: as §1

[14] = test system: ragweed (common ragweed, Ambrosia elatior); assay: Test A postemergence; details: Ambrosia artemisiifolia, post-emergence, 240 h, Postemergence, read-out: Ragweed plant response rating (0 to 100 scale)
Procedure, shortened: as §1

[15] = test system: ryegrass, Italian (Italian ryegrass, Lolium multiflorum); assay: Test A postemergence; details: Lolium multiflorum, post-emergence, 240 h, Postemergence, read-out: Ryegrass, Italian plant response rating (0 to 100 scale)
Procedure, shortened: as §1

[16] = test system: wheat (Triticum aestivum); assay: Test A postemergence; details: Triticum aestivum, post-emergence, 240 h, Postemergence, read-out: Wheat plant response rating (0 to 100 scale)
Procedure, shortened: as §1

[17] = test system: barnyardgrass (Echinochloa crus-galli); assay: Test B flooded paddy test; details: Echinochloa crus-galli, 360 h, Flood, 250 g ai/ha; visually evaluated after 13 to 15 d; read-out: Plant response rating, Barnyardgrass (0 to 100 scale where 0 is no effect and 100 is complete control)
Procedure, shortened: (§2)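 Visual ratings (0 none to 100 complete control) are relative to untreated plants, taken 13–15 d after treatment in a greenhouse. Test material went straight into floodwater standing 3 cm above the soil, kept constant, on plants at the 2-leaf stage.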

[18] = test system: ducksalad (Heteranthera limosa); assay: Test B flooded paddy test; details: Heteranthera limosa, 360 h, Flood, 250 g ai/ha; visually evaluated after 13 to 15 d; read-out: Plant response rating, Ducksalad (0 to 100 scale where 0 is no effect and 100 is complete control)
Procedure, shortened: as §2

[19] = test system: rice (Oryra sativa); assay: Test B flooded paddy test; details: Oryza sativa, 360 h, Flood, 250 g ai/ha; visually evaluated after 13 to 15 d; read-out: Plant response rating, Rice (0 to 100 scale where 0 is no effect and 100 is complete control)
Procedure, shortened: as §2

[20] = test system: sedge, umbrella (small-flower umbrella sedge, Cyperus difformis); assay: Test B flooded paddy test; details: Cyperus difformis, 360 h, Flood, 250 g ai/ha; visually evaluated after 13 to 15 d; read-out: Plant response rating, Sedge, Umbrella (0 to 100 scale where 0 is no effect and 100 is complete control)
Procedure, shortened: as §2

[21] = 125 g ai/ha, visual rating about 10 d after treatment
[22] = 31 g ai/ha, 0 is no effect, 100 is complete control

`CN1C[C@H](c2ccc(C(F)(F)F)cc2)[C@@H](C(=O)Nc2ccc(F)nc2F)C1=O` [Compound 1347] gave a pest or weed control at 31 g/ha ([1]; 31 g ai/ha, 0 to 100 scale where 0 is no effect and 100 is complete control, read-out: Kochia plant response rating) of 90%, a pest or weed control at 125 g/ha ([1]; 125 g ai/ha, 0 to 100 scale (0 no effect, 100 complete control), read-out: Plant response rating, Kochia) of 90% and a pest or weed control at 31 g/ha ([2]; 31 g ai/ha, 0 to 100 scale where 0 is no effect and 100 is complete control, read-out: Barnyardgrass plant response rating) of 80%. For the same compound, the pest or weed control at 125 g/ha ([2]; 125 g ai/ha, 0 to 100 scale (0 no effect, 100 complete control), read-out: Plant response rating, Barnyardgrass) was 100%, the pest or weed control at 31 g/ha ([3]; 31 g ai/ha, 0 to 100 scale where 0 is no effect and 100 is complete control, read-out: Foxtail, Giant plant response rating) was 100% and the pest or weed control at 125 g/ha ([3]; 125 g ai/ha, 0 to 100 scale (0 no effect, 100 complete control), read-out: Plant response rating, Foxtail, Giant) was 100%. For the same compound, the pest or weed control at 31 g/ha ([4]; 31 g ai/ha, 0 to 100 scale where 0 is no effect and 100 is complete control, read-out: Pigweed plant response rating) was 90%, the pest or weed control at 125 g/ha ([4]; 125 g ai/ha, 0 to 100 scale (0 no effect, 100 complete control), read-out: Plant response rating, Pigweed) was 100% and the pest or weed control at 31 g/ha ([5]; 31 g ai/ha, 0 to 100 scale where 0 is no effect and 100 is complete control, read-out: Ragweed plant response rating) was 30%. It also gave a pest or weed control at 125 g/ha ([5]; 125 g ai/ha, 0 to 100 scale (0 no effect, 100 complete control), read-out: Plant response rating, Ragweed) of 90%, a pest or weed control at 31 g/ha ([6]; 31 g ai/ha, 0 to 100 scale where 0 is no effect and 100 is complete control, read-out: Ryegrass, Italian plant response rating) of 0% and a pest or weed control at 125 g/ha ([6]; 125 g ai/ha, 0 to 100 scale (0 no effect, 100 complete control), read-out: Plant response rating, Ryegrass, Italian) of 30%. It also gave a pest or weed control at 125 g/ha [7, 21] of 70%, a pest or weed control at 31 g/ha [7, 22] of 70% and a pest or weed control at 125 g/ha [8, 21] of 80%. For the same compound, the pest or weed control at 31 g/ha [8, 22] was 60%, the pest or weed control at 125 g/ha ([9]; 125 g ai/ha, visual rating about 10 d after treatment, read-out: Barnyardgrass plant response rating (0 to 100 scale, 0 no effect, 100 complete control)) was 90% and the pest or weed control at 31 g/ha ([9]; 31 g ai/ha, 0 is no effect, 100 is complete control, read-out: Barnyardgrass plant response rating (0 to 100 scale)) was 70%. It also gave a pest or weed control at 125 g/ha [10, 21] of 60%, a pest or weed control at 31 g/ha [10, 22] of 30% and a plant injury at 125 g/ha [11, 21] of 30%. The plant injury at 31 g/ha [11, 22] was 30%, the pest or weed control at 125 g/ha [12, 21] was 90% and the pest or weed control at 31 g/ha [12, 22] was 70%. For the same compound, the pest or weed control at 125 g/ha [13, 21] was 90%, the pest or weed control at 31 g/ha [13, 22] was 50% and the pest or weed control at 125 g/ha [14, 21] was 70%. For the same compound, the pest or weed control at 31 g/ha [14, 22] was 40%, the pest or weed control at 125 g/ha [15, 21] was 40% and the pest or weed control at 31 g/ha [15, 22] was 0%. It also gave a plant injury at 125 g/ha [16, 21] of 30%, a plant injury at 31 g/ha [16, 22] of 20% and a pest or weed control at 250 g/ha [17] of 90%. It also gave a pest or weed control at 250 g/ha [18] of 98%, a pest or weed control at 250 g/ha [19] of 0% and a pest or weed control at 250 g/ha [20] of 0%.
